Results reported in ChEMBL document CHEMBL4390649, “Fine-tuning the neuroprotective and blood-brain barrier permeability profile of multi-target agents designed to prevent progressive mitochondrial dysfunction” (Eur J Med Chem, 2019).
Calls of active or inactive are those of the source. No cut-off for these calls is given here.

What was measured:
[1] = Cytotoxicity against human HepG2 cells assessed as cell metabolic activity at 50 uM incubated for 48 hrs by resazurin assay relative to control; type: ADME, cell-based; conditions: read-out: Activity
[2] = tested on: SH-SY5Y; test: Neuroprotective activity against TBHP-induced oxidative damage in human SH-SY5Y cells assessed as increase in cell viability at 10 uM pretreated for 24 hrs followed by TBHP stimulation measured after 4 hrs by MTT assay relative to control; type: functional, cell-based
[3] = Cytotoxicity against human SH-SY5Y cells assessed as cell metabolic activity at 10 uM incubated for 24 hrs by MTT assay relative to control; type: ADME, cell-based; conditions: read-out: Activity
[4] = Antioxidant activity assessed as DPPH radical scavenging activity measured after 45 mins by UV-Visible spectrophotometric based assay; type: functional
[5] = Electrochemical behavior of the compound assessed as redox potential corrected toward saturated Ag/AgCl reference electrode by differential pulse voltammetry
[6] = Antioxidant activity assessed as ABTS radical scavenging activity measured after 15 mins by UV-Visible spectrophotometric based assay; type: functional
[7] = tested on: SH-SY5Y; test: Neuroprotective activity against 6-OHDA-induced toxicity in human SH-SY5Y cells assessed as reduction in cell damage at 10 uM pretreated for 24 hrs followed by 6-OHDA challenge and measured after 24 hrs by MTT assay relative to control; type: functional; set-up: scale not given: the % may be the effect or the level left
[8] = Metal chelating activity assessed as compound-Fe2+ complex formation at 100 uM incubated for 10 mins by ferrozine spectrophotometric assay
[9] = tested on: SH-SY5Y; test: Neuroprotective activity against TBHP-induced oxidative damage in human SH-SY5Y cells assessed as increase in cell viability at 50 uM pretreated for 24 hrs followed by TBHP stimulation measured after 4 hrs by MTT assay relative to control; type: functional
[10] = Cytotoxicity against human SH-SY5Y cells assessed as cell metabolic activity at 50 uM incubated for 24 hrs by MTT assay relative to control; type: ADME, cell-based; conditions: read-out: Activity
[11] = Electrochemical behavior of the compound assessed as redox potential corrected toward saturated Ag/AgCl reference electrode by cyclic voltammetry
[12] = tested on: SH-SY5Y; test: Induction of ROS generation in human SH-SY5Y cells at 50 uM incubated for 24 hrs by DCFH-DA probe based fluorescence assay relative to control; type: functional
[13] = Cytotoxicity against human HepG2 cells assessed as cell metabolic activity at 10 uM incubated for 48 hrs by resazurin assay relative to control; type: ADME, cell-based; conditions: read-out: Activity
[14] = tested on: HepG2; test: Cytotoxicity against human HepG2 cells assessed as reduction in cell viability incubated for 48 hrs by resazurin assay relative to control; type: cell-based; conditions: hepg2, 48 h
[15] = tested on: SH-SY5Y; test: Cytotoxicity against human SH-SY5Y cells assessed as reduction in cell viability incubated for 24 hrs by MTT assay relative to control; type: cell-based
[16] = tested on: SH-SY5Y; test: Neuroprotective activity against 6-OHDA-induced toxicity in human SH-SY5Y cells assessed as reduction in cell damage at 10 to 50 uM pretreated for 24 hrs followed by 6-OHDA challenge and measured after 24 hrs by MTT assay relative to control; type: functional
[17] = tested on: SH-SY5Y; test: Cytotoxicity against human SH-SY5Y cells assessed as reduction in cell viability at 10 uM incubated for 24 hrs by MTT assay relative to control; type: cell-based
[18] = tested on: SH-SY5Y; test: Neuroprotective activity against H2O2-induced oxidative damage in human SH-SY5Y cells assessed as reduction in cell damage at 10 uM pretreated for 24 hrs followed by H2O2 challenge measured after 30 mins by MTT assay relative to control; type: functional

| Compound | viability at 48 h, 50 µM [1] [%] | Activity [2] | viability at 24 h, 10 µM [3] [%] | IC50 [4] [µM] | Activity [5] [mV] | IC50 [6] [µM] | Activity [7] [%] | Activity [8] [%] | Activity [9] | viability at 24 h, 50 µM [10] [%] | Activity [11] [mV] | Activity [12] | viability at 48 h, 10 µM [13] [%] | Activity [14] | Activity [15] | Activity [16] | Activity [17] [%] | Activity [18] |
| --- | --- | --- | --- | --- | --- | --- | --- | --- | --- | --- | --- | --- | --- | --- | --- | --- | --- | --- |
| CS(=O)(=O)[O-].O=C(/C=C/c1cc(O)c(O)c(O)c1)NCCCCCC[P+](c1ccccc1)(c1ccccc1)c1ccccc1 | 94.7 | inactive | 104 | 19 | 709 | 12.2 | 19.8 | > 80 | inactive | 94 | 34 | Active | 105 | – | – | – | – | – |
| CS(=O)(=O)[O-].O=C(Cc1ccc(O)c(O)c1)NCCCCCCCCCC[P+](c1ccccc1)(c1ccccc1)c1ccccc1 | 10.7 | inactive | 94.5 | 56.4 | 122 | 28.1 | – | > 80 | inactive | 85.7 | 122 | 103.4% | 85.2 | Dose-dependent effect | Dose-dependent effect | – | – | – |
| CS(=O)(=O)[O-].O=C(/C=C/c1ccc(O)c(O)c1)NCCCCCCCCCC[P+](c1ccccc1)(c1ccccc1)c1ccccc1 | 8.24 | inactive | 104 | 25.9 | 174 | 23.5 | – | > 80 | inactive | 15.9 | 174 | 132.5% | 9.19 | Dose-dependent effect | Dose-dependent effect | inactive | < 45 | – |
| CS(=O)(=O)[O-].O=C(CCc1ccc(O)c(O)c1)NCCCCCCCCCC[P+](c1ccccc1)(c1ccccc1)c1ccccc1 | 8.22 | inactive | 96 | 59.1 | 122 | 30.1 | – | > 80 | inactive | 72.5 | 122 | 96.2% | 41.8 | Dose-dependent effect | Dose-dependent effect | – | < 45 | – |
| O=C(NCCCCCCCCCC[P+](c1ccccc1)(c1ccccc1)c1ccccc1)c1ccc(O)c(O)c1.[Br-] | 2.4 | inactive | 97.8 | 31 | 210 | 19.4 | – | > 80 | inactive | 31.1 | 210 | 68.4% | 44.6 | Dose-dependent effect | Dose-dependent effect | inactive | < 45 | inactive |
